Source: patent US9290788B2, “Device for determining or studying the state of stimulation of the natural defences of plants or portions of plants” (Institut National De La Recherche Agronomique, priority 2010, dated 2016)

What was measured:
[1] = tested on: 28 target genes (defense genes) in apple tree leaves; experiment: Test 2: analysis of defenses, expression of the 28 genes (qPCR) in apple tree seedlings sprayed with 10 NDS candidates, with or without hydrogen peroxide; assay type: in vivo, apple tree seedlings (Golden Delicious)
[2] = tested on: 28 target genes (defense genes) in apple tree leaves; experiment: Test 1: relative expression of the 28 defense genes (qPCR, ΔΔCt) in apple tree seedling leaves subjected to NDS treatments and abiotic stresses; assay type: in vivo, apple tree seedlings (Golden Delicious); settings: for Relative expression ACCO (log base 2) / Relative expression APOX (log base 2) / Relative expression CAD (log base 2) / Relative expression CHS (log base 2) / Relative expression CSL (log base 2) / Relative expression CalS (log base 2) / Relative expression DFR (log base 2) / Relative expression EDS1 (log base 2) / Relative expression EIN3 (log base 2) / Relative expression FPPS (log base 2) / Relative expression Far (log base 2) / Relative expression GST (log base 2) / Relative expression HMGR (log base 2) / Relative expression JAR (log base 2) / Relative expression LOX2 (log base 2) / Relative expression POX (log base 2) / Relative expression PPO (log base 2) / Relative expression Pect (log base 2) / Relative expression WRKY (log base 2): abiotic stress; for Relative expression of ANS / Relative expression of PAL / Relative expression of PR-1 / Relative expression of PR-2 / Relative expression of PR-4 / Relative expression of PR-5 / Relative expression of PR-8 / Relative expression of PR-14 / Relative expression of PR-15: vs water control, abiotic stress treatment

OO [H202]
ACCO expression ([1]; J2 + H2O2): 0.60
APOX expression ([1]; J2 + H2O2): −0.37
CAD expression ([1]; J2 + H2O2): −0.32
CSL expression ([1]; J2 + H2O2): 2.28
CalS expression ([1]; J2 + H2O2): −0.31
EDS1 expression ([1]; J2 + H2O2): 1.12
EIN3 expression ([1]; J2 + H2O2): −0.20
FAR expression ([1]; J2 + H2O2): 1.07
GST expression ([1]; J2 + H2O2): 0.21
JAR expression ([1]; J2 + H2O2): −0.62
LOX2 expression ([1]; J2 + H2O2): −0.39
PECT expression ([1]; J2 + H2O2): 0.01
POX expression ([1]; J2 + H2O2): 2.12
WRKY expression ([1]; J2 + H2O2): 1.42
ACCO expression ([1]; J3 + H2O2): 0.37
APOX expression ([1]; J3 + H2O2): 0.36
CAD expression ([1]; J3 + H2O2): 0.30
CSL expression ([1]; J3 + H2O2): 1.32
CalS expression ([1]; J3 + H2O2): 0.04
EDS1 expression ([1]; J3 + H2O2): 1.44
EIN3 expression ([1]; J3 + H2O2): 0.33
FAR expression ([1]; J3 + H2O2): 0.12
GST expression ([1]; J3 + H2O2): 0.30
JAR expression ([1]; J3 + H2O2): 0.09
LOX2 expression ([1]; J3 + H2O2): −0.03
PECT expression ([1]; J3 + H2O2): 1.53
POX expression ([1]; J3 + H2O2): 1.61
WRKY expression ([1]; J3 + H2O2): 1.27

C[n+]1ccc(-c2cc[n+](C)cc2)cc1 [Paraquat, paraquat dichloride x-hydrate]
effect on the modulation of target gene expression (in words) ([2]; Test 1): strongly activates some genes
Relative expression ACCO (log base 2) ([2]; J1, relative to water control): −1.33
Relative expression APOX (log base 2) ([2]; J1, relative to water control): 0.00
Relative expression CAD (log base 2) ([2]; J1, relative to water control): 0.04
Relative expression CHS (log base 2) ([2]; J1, relative to water control): −1.56
Relative expression CSL (log base 2) ([2]; J1, relative to water control): 2.29
Relative expression CalS (log base 2) ([2]; J1, relative to water control): 0.00
Relative expression DFR (log base 2) ([2]; J1, relative to water control): −0.74
Relative expression EDS1 (log base 2) ([2]; J1, relative to water control): 0.83
Relative expression EIN3 (log base 2) ([2]; J1, relative to water control): 0.00
Relative expression FPPS (log base 2) ([2]; J1, relative to water control): 1.02
Relative expression Far (log base 2) ([2]; J1, relative to water control): 2.76
Relative expression GST (log base 2) ([2]; J1, relative to water control): 1.99
Relative expression HMGR (log base 2) ([2]; J1, relative to water control): 2.85
Relative expression JAR (log base 2) ([2]; J1, relative to water control): 0.00
Relative expression LOX2 (log base 2) ([2]; J1, relative to water control): −0.58
Relative expression POX (log base 2) ([2]; J1, relative to water control): 0.00
Relative expression PPO (log base 2) ([2]; J1, relative to water control): 0.67
Relative expression Pect (log base 2) ([2]; J1, relative to water control): 0.00
Relative expression WRKY (log base 2) ([2]; J1, relative to water control): 4.01
Relative expression ACCO (log base 2) ([2]; J2, relative to water control): 0.02
Relative expression APOX (log base 2) ([2]; J2, relative to water control): 2.01
Relative expression CAD (log base 2) ([2]; J2, relative to water control): 0.27
Relative expression CHS (log base 2) ([2]; J2, relative to water control): −1.49
Relative expression CSL (log base 2) ([2]; J2, relative to water control): 4.42
Relative expression CalS (log base 2) ([2]; J2, relative to water control): 0.42
Relative expression DFR (log base 2) ([2]; J2, relative to water control): −1.14
Relative expression EDS1 (log base 2) ([2]; J2, relative to water control): 2.89
Relative expression EIN3 (log base 2) ([2]; J2, relative to water control): 0.21
Relative expression FPPS (log base 2) ([2]; J2, relative to water control): 0.15
Relative expression Far (log base 2) ([2]; J2, relative to water control): 2.30
Relative expression GST (log base 2) ([2]; J2, relative to water control): 1.83
Relative expression HMGR (log base 2) ([2]; J2, relative to water control): 1.20
Relative expression JAR (log base 2) ([2]; J2, relative to water control): −0.81
Relative expression LOX2 (log base 2) ([2]; J2, relative to water control): −0.54
Relative expression POX (log base 2) ([2]; J2, relative to water control): 4.26
Relative expression PPO (log base 2) ([2]; J2, relative to water control): 6.27
Relative expression Pect (log base 2) ([2]; J2, relative to water control): 2.17
Relative expression WRKY (log base 2) ([2]; J2, relative to water control): 6.37
Relative expression ACCO (log base 2) ([2]; J3, relative to water control): 0.41
Relative expression APOX (log base 2) ([2]; J3, relative to water control): 1.48
Relative expression CAD (log base 2) ([2]; J3, relative to water control): −0.51
Relative expression CHS (log base 2) ([2]; J3, relative to water control): −2.04
Relative expression CSL (log base 2) ([2]; J3, relative to water control): 5.43
Relative expression CalS (log base 2) ([2]; J3, relative to water control): 0.01
Relative expression DFR (log base 2) ([2]; J3, relative to water control): −2.09
Relative expression EDS1 (log base 2) ([2]; J3, relative to water control): 2.28
Relative expression EIN3 (log base 2) ([2]; J3, relative to water control): −0.11
Relative expression FPPS (log base 2) ([2]; J3, relative to water control): −1.83
Relative expression Far (log base 2) ([2]; J3, relative to water control): 1.85
Relative expression GST (log base 2) ([2]; J3, relative to water control): 0.80
Relative expression HMGR (log base 2) ([2]; J3, relative to water control): −0.24
Relative expression JAR (log base 2) ([2]; J3, relative to water control): −2.46
Relative expression LOX2 (log base 2) ([2]; J3, relative to water control): −2.37
Relative expression POX (log base 2) ([2]; J3, relative to water control): −0.53
Relative expression PPO (log base 2) ([2]; J3, relative to water control): 4.63
Relative expression Pect (log base 2) ([2]; J3, relative to water control): −2.82
Relative expression WRKY (log base 2) ([2]; J3, relative to water control): 2.76
Relative expression of ANS ([2]; J1): 0.00 log2
Relative expression of PAL ([2]; J1): 1.99 log2
Relative expression of PR-1 ([2]; J1): 0.55 log2
Relative expression of PR-2 ([2]; J1): 4.09 log2
Relative expression of PR-4 ([2]; J1): 7.10 log2
Relative expression of PR-5 ([2]; J1): 0.00 log2
Relative expression of PR-8 ([2]; J1): 0.00 log2
Relative expression of PR-14 ([2]; J1): 2.61 log2
Relative expression of PR-15 ([2]; J1): 0.00 log2
Relative expression of ANS ([2]; J2): −2.09 log2
Relative expression of PAL ([2]; J2): 2.56 log2
Relative expression of PR-1 ([2]; J2): 3.00 log2
Relative expression of PR-2 ([2]; J2): 5.88 log2
Relative expression of PR-4 ([2]; J2): 6.93 log2
Relative expression of PR-5 ([2]; J2): −3.05 log2
Relative expression of PR-8 ([2]; J2): 5.12 log2
Relative expression of PR-14 ([2]; J2): 6.04 log2
Relative expression of PR-15 ([2]; J2): 4.77 log2
Relative expression of ANS ([2]; J3): −0.78 log2
Relative expression of PAL ([2]; J3): 0.66 log2
Relative expression of PR-1 ([2]; J3): 0.54 log2
Relative expression of PR-2 ([2]; J3): 2.53 log2
Relative expression of PR-4 ([2]; J3): 6.63 log2
Relative expression of PR-5 ([2]; J3): −8.56 log2
Relative expression of PR-8 ([2]; J3): 5.36 log2
Relative expression of PR-14 ([2]; J3): 1.28 log2
Relative expression of PR-15 ([2]; J3): −0.34 log2
